Among the test systems are RPMI-8226 leukemia; EKVX NSCLC; HS 578T breast; SK-MEL-2 melanoma; OVCAR-5 ovarian; M14 melanoma; SNB-75 CNS; HOP-92 NSCLC.
Common to all, as to test: inhibition of tumour cell growth, NCI panel, 48 h

Several values for one entry are separate records, joined by “and”; a condition that tells them apart may be missing. Equal values may be shown once.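 Step 1: Grow cells in 96-well plates. Step 2: Expose to compound for 48 hours at 5 concentrations. Step 3: Interpolate endpoints linearly; if unreached, use highest concentration. The concentration for 50% growth inhibition is given as GI50. At the TGI there is no net growth.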 Some results are limits rather than exact numbers.

Regarding `NCCNCC(O)CO` (stereo not drawn), the TGI in the assay with RPMI-8226 leukemia, with EKVX NSCLC, with HS 578T breast, in the assay with SK-MEL-2 melanoma, in the assay on OVCAR-5 ovarian and with M14 melanoma was above 100 µM in each case. For the same molecule, the TGI in the assay on SNB-75 CNS and with HOP-92 NSCLC was above 100 µM each time.

For `COC(=O)c1ccc(=O)c2nc3/c(=C/O)c(O)cc(=O)c3[nH]c12`, the GI50 in the assay with RPMI-8226 leukemia is 0.393 µM; with EKVX NSCLC it was 0.557 µM; with HS 578T breast it was 0.301 µM; in the assay with SK-MEL-2 melanoma, 2.27 µM; in the assay with OVCAR-5 ovarian, 3.38 µM; in the assay with M14 melanoma, 1.07 µM. For the same molecule, the GI50 with SNB-75 CNS is 0.482 µM. For the same molecule, the TGI in the assay with RPMI-8226 leukemia is 30.7 µM and 3.93 µM; in the assay with EKVX NSCLC, 8.52 µM and 14.2 µM; with HS 578T breast it was 23 µM and 20.1 µM; with SK-MEL-2 melanoma, 15 µM and 16.7 µM; in the assay with OVCAR-5 ovarian, 13 µM and 22.4 µM; in the assay on M14 melanoma, 24.9 µM and 24.5 µM. Also, the TGI with SNB-75 CNS was 16.4 µM and 13.6 µM; in the assay on HOP-92 NSCLC, 6.03 µM and 11.1 µM.

In the case of `Nc1ccc(C#Cc2cncnc2Nc2ccc(OCc3cccc(F)c3)c(Cl)c2)cc1`, the GI50 with RPMI-8226 leukemia was 15.3 µM; in the assay with EKVX NSCLC, 3.07 µM; in the assay on HS 578T breast, 6.07 µM; in the assay with SK-MEL-2 melanoma it was above 16.4 µM; in the assay on OVCAR-5 ovarian, above 25 µM; in the assay on M14 melanoma it was above 23.6 µM. Further, the GI50 in the assay with SNB-75 CNS was above 12.1 µM; with HOP-92 NSCLC, 10.6 µM. For the same molecule, the TGI with RPMI-8226 leukemia is above 25 µM; with EKVX NSCLC, above 25 µM; in the assay on HS 578T breast it was 24.2 µM; with SK-MEL-2 melanoma, above 25 µM; in the assay on OVCAR-5 ovarian, above 25 µM; in the assay on M14 melanoma it was above 25 µM. In addition, the TGI in the assay with SNB-75 CNS is 24.5 µM; in the assay with HOP-92 NSCLC it was above 25 µM.

For `COc1ccc2cc(C(=O)/C=C/c3cccc(Cl)c3Cl)ccc2c1`, the GI50 was 5.56 µM in the assay on RPMI-8226 leukemia; 20.1 µM in the assay with EKVX NSCLC; 50.5 µM with HS 578T breast; above 50.9 µM in the assay on SK-MEL-2 melanoma; 36.9 µM with OVCAR-5 ovarian; 6.51 µM in the assay with M14 melanoma. Further, the results for the GI50 with SNB-75 CNS and with HOP-92 NSCLC were 28.4 µM and 22.1 µM, respectively. In addition, the TGI was above 46.8 µM with RPMI-8226 leukemia; above 100 µM in the assay with EKVX NSCLC; above 100 µM with HS 578T breast; 98.3 µM with SK-MEL-2 melanoma; 95.2 µM with OVCAR-5 ovarian; above 100 µM in the assay with M14 melanoma. Further, the TGI is above 90.8 µM in the assay on SNB-75 CNS and above 79.7 µM in the assay on HOP-92 NSCLC.

On to `COC(=O)[C@]12CC[C@@H](C)[C@H](C)[C@@H]1C1=CC[C@@H]3[C@@]4(C)C(C=O)=C[C@@](C)(COC(C)=O)[C@@H]4[C@H](O)C[C@@]3(C)[C@]1(C)CC2`, for which the GI50 is 1.4 µM in the assay with RPMI-8226 leukemia; 2.76 µM in the assay on EKVX NSCLC; 2.67 µM in the assay on HS 578T breast; 2.61 µM in the assay on SK-MEL-2 melanoma; 2.03 µM in the assay with OVCAR-5 ovarian; 2.15 µM with M14 melanoma. Moreover, the figures for the GI50 with SNB-75 CNS and with HOP-92 NSCLC were 1.74 µM and 1.65 µM, respectively. In addition, the TGI came to 4.55 µM in the assay with RPMI-8226 leukemia; 10.2 µM with EKVX NSCLC; 9.43 µM in the assay on HS 578T breast; 6.15 µM with SK-MEL-2 melanoma; 5.6 µM in the assay on OVCAR-5 ovarian; 5.51 µM with M14 melanoma. Also, the TGI in the assay with SNB-75 CNS is 10.5 µM; with HOP-92 NSCLC, 4.28 µM.

In the case of `CC(CN)[C@@H]1CC[C@]2(CO)CC[C@]3(C)[C@H](CC[C@@H]4[C@@]5(C)CCC(NCCO)C(C)(C)[C@@H]5CC[C@]43C)[C@@H]12` (stereo partly drawn), the GI50 with RPMI-8226 leukemia is 1.89 µM; with EKVX NSCLC, 2.1 µM; in the assay with HS 578T breast, 1.87 µM; in the assay on SK-MEL-2 melanoma it was 1.8 µM; in the assay with OVCAR-5 ovarian, 2.11 µM; in the assay with M14 melanoma it was 1.92 µM. Besides, the GI50 in the assay on SNB-75 CNS and with HOP-92 NSCLC was 1.3 µM throughout. Moreover, the TGI in the assay on RPMI-8226 leukemia came out at 4.5 µM; in the assay with EKVX NSCLC, 5.01 µM; with HS 578T breast, 4.59 µM; in the assay on SK-MEL-2 melanoma, 3.42 µM; in the assay on OVCAR-5 ovarian it was 5 µM; with M14 melanoma, 3.68 µM. Further, the TGI in the assay with SNB-75 CNS amounted to 3.12 µM; in the assay on HOP-92 NSCLC, 2.94 µM.

Turning to `CC(C)(C)OC(=O)NCCCCCCCCn1c2c(c3ccccc3c1=O)C(=O)c1ccccc1-2`, the GI50 in the assay on RPMI-8226 leukemia is above 50 µM; with EKVX NSCLC, 43.5 µM; with HS 578T breast it was 7.04 µM; in the assay on SK-MEL-2 melanoma, 5.61 µM; with OVCAR-5 ovarian it was above 43 µM; in the assay with M14 melanoma, above 50 µM. Moreover, the GI50 was 10.6 µM in the assay with SNB-75 CNS and 9.05 µM in the assay with HOP-92 NSCLC. Also, the TGI in the assay on RPMI-8226 leukemia is above 50 µM; in the assay on EKVX NSCLC, above 50 µM; in the assay on HS 578T breast, 27.5 µM; in the assay on SK-MEL-2 melanoma, 19.9 µM; in the assay with OVCAR-5 ovarian, above 50 µM; with M14 melanoma it was above 50 µM. In addition, the TGI in the assay with SNB-75 CNS is 29.2 µM; in the assay with HOP-92 NSCLC it was 21 µM.

For `C=C(CN1CCN(c2cccc(C(F)(F)F)c2)CC1)c1ccc(C(=O)Nc2ccccc2N)cc1`, the GI50 was 0.322 µM in the assay with RPMI-8226 leukemia; 2.92 µM with EKVX NSCLC; 0.491 µM with HS 578T breast; 3.44 µM in the assay on SK-MEL-2 melanoma; 6.63 µM in the assay with OVCAR-5 ovarian; 1.05 µM in the assay with M14 melanoma. Besides, the GI50 in the assay on HOP-92 NSCLC was 1.51 µM. For the same molecule, the TGI was 2.49 µM in the assay on RPMI-8226 leukemia; 19.4 µM in the assay on EKVX NSCLC; above 36.3 µM in the assay with HS 578T breast; 32.2 µM in the assay with SK-MEL-2 melanoma; 26.4 µM with OVCAR-5 ovarian; 9.89 µM in the assay with M14 melanoma. Moreover, the TGI in the assay with HOP-92 NSCLC is 17.8 µM.

Consider `O=c1cccc(C#Cc2ccccc2)o1`, for which the GI50 with RPMI-8226 leukemia was 0.698 µM; in the assay on EKVX NSCLC, 5.21 µM; in the assay on HS 578T breast, 6.5 µM; in the assay on SK-MEL-2 melanoma, 4.71 µM; in the assay on OVCAR-5 ovarian, 6.35 µM; in the assay with M14 melanoma it was 5.9 µM. Besides, the GI50 in the assay on SNB-75 CNS is 42.3 µM; with HOP-92 NSCLC, 2.06 µM. Further, the TGI in the assay on RPMI-8226 leukemia was 12.1 µM; in the assay on EKVX NSCLC, 32.1 µM; with HS 578T breast, 25.9 µM; in the assay with SK-MEL-2 melanoma, above 33.9 µM; with OVCAR-5 ovarian, 16.1 µM; in the assay with M14 melanoma it was above 22.8 µM. Further, the figures for the TGI in the assay with SNB-75 CNS and in the assay on HOP-92 NSCLC were above 100 µM and 13.8 µM, respectively.
